In brackets after ≈: the same amount, converted by molar mass. Where two headings read alike, the source gives them in different places.
How the values were obtained:
[1] = system: Iléon de cobaye; assay: spasmolytic action, antihistaminic effect; assay type: cell-based; conditions: histamine 0,5 à 3 x 10^-5 mg/ml, cinq préparations; read-out: DE 50 envers le spasme provoqué par l'histamine
Procedure: (§1) Les essais ont été effectués sur l'Iléon de cobaye maintenu en survie dans une solution de Tyrode oxygénée et thermostabilisée à 37° C suivant le méthode de MAGNUS.
(§2) L'action spasmolytique du composé 2 a été étudiée en opposition avec les propriétés spasmogènes de l'acétylcholine, du chlorure de baryum, de l'histamine et de la sérotonine.
Ces essais ont été pratiqués sur cinq préparations. L'histamine a été utilisée à la concentration de 0,5 à 3 x 10^-5 mg/ml.

[2] = system: Iléon de cobaye; assay: spasmolytic action, anticholinergic effect (acetylcholine contraction); assay type: cell-based; conditions: acétylcholine 3 à 6 x 10^-5 mg/ml, six préparations; read-out: DE 50 (effet anticholinergique)
Procedure: as §1, §2
Ces essais ont été effectués sur six préparations. L'effet inhibiteur du composé 2 a été recherché à l'encontre des propriétés contracturantes de l'acétylcholine utilisée à la concentration de 3 à 6 x 10^-5 mg/ml pour une cuve de 30 ml.

[3] = system: Souris; assay: analgesic activity, phenylbenzoquinone writhing technique; assay type: in vivo
Procedure: Ce test consiste à rechercher une éventuelle protection vis-à-vis des crampes ou contorsions abdominales provoquées chez la Souris par injection intrapéritonéale de phénylbenzoquinone.
Les souris sont réparties au hasard par lots de 4 dans des cristallisoirs.
Le compose 2 a été injecté par voie intrapéritonéale, 30 minutes avant l'injection de la phénylbenzoquinone.
Les crampes abdominales sont comptées pour chaque souris pendant 30 minutes à partir de la quinzième minute qui suit l'injection de l'agent algogène.

[4] = system: chiens anesthésiés; assay: cardiovascular toxicity in the anaesthetised dog, slow perfusion; assay type: in vivo, Chien; conditions: in vivo, 20 mg/kg
Procedure: L'étude du composé 2 a été effectuée sur 7 chiens anesthésiés à des doses allant de 4 à 20 mg/kg en perfusion lente.

[5] = system: Iléon de cobaye; assay: spasmolytic action, anti barium chloride effect; assay type: cell-based; conditions: BaCl2 6 x 10^-2 mg/ml
Procedure: as §1, §2
Ces essais ont été effectués sur douze préparations. Six ont été utilisées pour la recherche d'inhibition de la contraction ba- rytique dite curative, les six autres pour les essais dits "préventif baryum".
La concentration de BaCl2 utilisée comme agent contracturant est de 6 x 10^-2 mg/ml.

[6] = system: souris femelles; assay: acute toxicity in the mouse, intraperitoneal; assay type: in vivo; conditions: voie intrapéritonéale, dead mice of the group
Text: (§3) Les produits ont été administrés par voie intrapéritonéale à des souris femelles dont le poids variait de 18 à 30 g.
(§4) Les animaux injectés ont été maintenus dans une salle thermostatée, nourris et abreuvés à volonté.
(§5) La mortalité a été relevée à 1 heure, 4 heures, 24 heures et 48 heures.

[7] = acute toxicity in the mouse, intraperitoneal; assay type: in vivo, Souris; conditions: mouse, in vivo, ip, voie intrapéritonéale; for mortality at 48 h: read-out: Mortalité %
Text: as §3, §4, §5

[8] = system: rat; assay: medium-term toxicity in the rat, per os, 5 weeks; conditions: per os, 2, 10 et 50 mg/kg pendant 5 semaines
Procedure: Cette étude a eu pour but de rechercher les effets éventuels du composé 2 sur les différents paramètres biologiques hématologi -ques et histologiques du rat après traitement per os à raison de 2,10 et 50 mg/kg pendant 5 semaines.

[9] = system: Souris; assay: tetrabenazine hypothermia; assay type: in vivo; conditions: product i.p. 5 mg/kg 30 min before tétrabénazine 32 mg/kg i.v.
[10] = system: Souris; assay: antireserpine activity: reserpine hypothermia; assay type: in vivo; conditions: réserpine 5 mg/kg i.p. 17 h before, product i.p. 5 mg/kg
Outline: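 Mice in groups of 4 given reserpine 5 mg/kg i.p.; 17 hours later rectal temperature taken by thermocouple and test substance or solvent given i.p. Temperature measured hourly for 4 hours. Reported as mean temperature changes at 1, 2, 3 and 4 hours, their 4-hour sum, and percent rise versus solvent controls.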

[11] = system: Souris; assay: tetrabenazine ptosis; assay type: in vivo; conditions: product i.p. 5 mg/kg 30 min before tétrabénazine 32 mg/kg i.v.
[12] = 20 mg/kg/IP 30 min before phényl-benzoquinone 10 mg/kg/IP
[13] = 50 mg/kg/IP 30 min before phényl-benzoquinone 10 mg/kg/IP

SMILES: CN(C)CCN1c2ccccc2C2ON=C(c3ccccc3)C2c2ccccc21 (stereo not drawn) [Composé 2, (β-diméthylaminoéthyl)-8 phényl-3 trihydro-3a,8, 12b (dibenzo [b,f]isoxazolo [4,5-d])azépine]
- EC50 [1]: ~0.05 µg/mL (≈ 0.13 µM)
- EC50 [2]: 0.5 µg/mL (≈ 1.3 µM)
- % de protection [3, 12]: 70%
- Nombre de crampes en 30 minutes [3, 12]: 35
- % de protection [3, 13]: 100%
- Nombre de crampes en 30 minutes [3, 13]: 0
- action protectrice envers le syndrome douloureux à la phénylbenzoquinone ([3]; in vivo): action protectrice importante
- toxicité sur le système cardiovasculaire comparativement à l'imipramine [4]: plus faible toxicité
- IC50 ([5]; curative, read-out: concentration for inhibition de 50% de l'effet spasmogène, essais curatifs): 1 µg/mL (≈ 2.61 µM)
- IC50 ([5]; Cavia porcellus, preventive, read-out: concentration for inhibition de 50% de l'effet spasmogène, essais préventifs): 0.5 µg/mL (≈ 1.3 µM)
- Mortalité en 1 heure ([6]; 10 mg/kg): 0
- Mortalité en 48 h. ([6]; 10 mg/kg): 0
- Mortalité en 1 heure ([6]; 50 mg/kg): 0
- Mortalité en 48 h. ([6]; 50 mg/kg): 0
- Mortalité en 1 heure ([6]; 75 mg/kg): 0
- Mortalité en 48 h. ([6]; 75 mg/kg): 0
- Mortalité en 1 heure ([6]; 100 mg/kg): 3
- Mortalité en 48 h. ([6]; 100 mg/kg): 3
- Mortalité en 1 heure ([6]; 200 mg/kg): 4
- Mortalité en 48 h. ([6]; 200 mg/kg): 5
- LD50 at 48 h ([7]; souris femelles, read-out: DL 50): 95 mg/kg
- mortality at 48 h ([7]; 10 mg/kg): 0%
- mortality at 48 h ([7]; 50 mg/kg): 0%
- mortality at 48 h ([7]; 75 mg/kg): 0%
- mortality at 48 h ([7]; 100 mg/kg): 60%
- mortality at 48 h ([7]; 200 mg/kg): 100%
- paramètres biologiques hématologiques et histologiques du rat [8]: aucune modification
- inhibition in vivo at 5 mg/kg ([9]; ip, 2 h, hypothermie, read-out: % de protection): 3%
- Température après tétrabénazine 30 minutes [9]: -3,2
- Température après tétrabénazine 60 minutes [9]: -2,6
- Température après tétrabénazine 90 minutes [9]: -1,3
- Température après tétrabénazine 120 minutes [9]: -1,3
- Température après tétrabénazine Total [9]: -8,3
- change in vivo at 5 mg/kg ([10]; ip, 4 h, read-out: % d'augmentation par rapport aux témoins): 155%
- variation de température T= 2h [10]: +1,6
- variation de température T=3h [10]: +0,7
- variation de température T=4h [10]: +1,4
- inhibition in vivo at 5 mg/kg ([11]; ip, 2 h, ptosis, read-out: % de protection): 5%
- Ptosis Total [11]: 28,6
- Ptosis 30 minutes ([11]; score 0-4 per eye): 4,8
- Ptosis 60 minutes ([11]; score 0-4 per eye): 7,8
- Ptosis 90 minutes ([11]; score 0-4 per eye): 8
- Ptosis 120 minutes ([11]; score 0-4 per eye): 8

Reference: patent EP0063525A1, “Dibenzazepine tetracyclic derivatives, process for their preparation and pharmaceutical compositions containing them” (CENTRE NATIONAL DE LA RECHERCHE SCIENTIFIQUE (CNRS), priority 1981, dated 1982)
